# Source: ChEMBL document CHEMBL2163206, “New nitrogen containing substituents at the indole-2-carboxamide yield high potent and broad spectrum indolylarylsulfone HIV-1 non-nucleoside reverse transcriptase inhibitors” (J Med Chem, 2012)
# Experiments:
# [1] = test system: Human immunodeficiency virus 1; test: Antiviral activity against HIV1 NL4-3 infected in human MT4 cells assessed as inhibition of virus-induced cytopathicity measured 5 days post infection by MTT assay; assay type: functional, organism-based; conditions: Human immunodeficiency virus 1, NL4-3, MT4, 120 h
# in vitro = conditions: human
# Description: Selectivity index, ratio of CC50 for mock-infected human MT4 cells to EC50 for HIV1 NL4-3 infected in human MT4 cells
# [2] = Cytotoxicity against mock-infected human MT4 cells measured after 5 days by MTT assay; assay type: cell-based
# [3] = target: Human immunodeficiency virus type 1 reverse transcriptase (Human immunodeficiency virus 1, UniProt Q72547, L100I); test: Inhibition of HIV1 reverse transcriptase L100I mutant RNA-dependent DNA polymerase activity using poly(rA)/oligo(dT)10:1 and [3H]-dTTP substrate
# [4] = target: Human immunodeficiency virus type 1 reverse transcriptase (Human immunodeficiency virus 1, UniProt Q72547); test: Inhibition of wild type HIV1 reverse transcriptase RNA-dependent DNA polymerase activity using poly(rA)/oligo(dT)10:1 and [3H]-dTTP substrate
# [5] = test system: Human immunodeficiency virus 1; assay type: functional, organism-based; conditions: Human immunodeficiency virus 1, MT4, 120 h
# [6] = target: Human immunodeficiency virus type 1 reverse transcriptase (Human immunodeficiency virus 1, UniProt Q72547, K103N); test: Inhibition of HIV1 reverse transcriptase K103N mutant RNA-dependent DNA polymerase activity using poly(rA)/oligo(dT)10:1 and [3H]-dTTP substrate
# [7] = test system: Human immunodeficiency virus 1; test: microbe, parasite or virus in culture; conditions: Human immunodeficiency virus 1, MT4, 120 h
# Description: Antiviral activity against HIV1 containing reverse transcriptase Y188L mutant infected in human MT4 cells assessed as inhibition of virus-induced cytopathicity measured 5 days post infection by MTT assay
# [8] = test system: Human immunodeficiency virus 1; test: Antiviral activity against HIV1 containing reverse transcriptase K103N mutant infected in human MT4 cells assessed as inhibition of virus-induced cytopathicity measured 5 days post infection by MTT assay; assay type: functional, organism-based; conditions: Human immunodeficiency virus 1, MT4, 120 h
# [9] = test system: Human immunodeficiency virus 1; test: microbe, parasite or virus in culture; conditions: Human immunodeficiency virus 1, clade A/E (ID12)
# Description: Antiviral activity against HIV1 clade A/E (ID12) infected in human PBMCs assessed as inhibition of p24 antigen production by ELISA
# [10] = test system: Human immunodeficiency virus 1; test: Potency index, ratio of EC50 for Efavirenz to EC50 for compound against HIV1 containing reverse transcriptase K103N mutant infected in human MT4 cells assessed as inhibition of virus-induced cytopathicity measured 5 days post infection by MTT assay; assay type: functional
# [11] = test system: Human immunodeficiency virus 1; test: microbe, parasite or virus in culture; conditions: Human immunodeficiency virus 1, clade C (SM145)
# Description: Antiviral activity against HIV1 clade C (SM145) infected in human PBMCs assessed as inhibition of p24 antigen production by ELISA
# [12] = test system: Human immunodeficiency virus 1; test: microbe, parasite or virus in culture; conditions: Human immunodeficiency virus 1, clade D (UG270)
# Description: Antiviral activity against HIV1 clade D (UG270) infected in human PBMCs assessed as inhibition of p24 antigen production by ELISA
# [13] = test system: Human immunodeficiency virus 1; test: Antiviral activity against HIV1 NL4-3 infected in human PBMCs assessed as inhibition of p24 antigen production by ELISA; assay type: functional, organism-based; conditions: Human immunodeficiency virus 1, NL4-3
# [14] = test system: Human immunodeficiency virus 1; test: microbe, parasite or virus in culture; conditions: Human immunodeficiency virus 1, clade B (BaL)
# Description: Antiviral activity against HIV1 clade B (BaL) infected in human PBMCs assessed as inhibition of p24 antigen production by ELISA
# [15] = test system: Human immunodeficiency virus 1; test: microbe, parasite or virus in culture; conditions: Human immunodeficiency virus 1, clade G (BCF-DIOUM)
# Description: Antiviral activity against HIV1 clade G (BCF-DIOUM) infected in human PBMCs assessed as inhibition of p24 antigen production by ELISA
# [16] = test system: Human immunodeficiency virus 1; test: microbe, parasite or virus in culture; conditions: Human immunodeficiency virus 1, clade F (BZ162)
# Description: Antiviral activity against HIV1 clade F (BZ162) infected in human PBMCs assessed as inhibition of p24 antigen production by ELISA
# [17] = test system: Human immunodeficiency virus 2; test: Antiviral activity against HIV2 infected in human PBMCs assessed as inhibition of p24 antigen production by ELISA; assay type: functional, organism-based
# [18] = test system: Human immunodeficiency virus 1; test: microbe, parasite or virus in culture; conditions: Human immunodeficiency virus 1, clade A (UG273)
# Description: Antiviral activity against HIV1 clade A (UG273) infected in human PBMCs assessed as inhibition of p24 antigen production by ELISA
# [19] = test system: Human immunodeficiency virus 1; assay type: functional, organism-based; conditions: Human immunodeficiency virus 1, IRLL98, MT4, 120 h
# [20] = test system: Human immunodeficiency virus 1; test: microbe, parasite or virus in culture; conditions: Human immunodeficiency virus 1, clade C (DJ259)
# Description: Antiviral activity against HIV1 clade C (DJ259) infected in human PBMCs assessed as inhibition of p24 antigen production by ELISA
SMILES,EC50 [1] [nM],selectivity ratio (in vitro),CC50 at 120 h [2] [nM],IC50 [3] [nM],IC50 [4] [nM],EC50 [5] [nM],IC50 [6] [nM],EC50 [7] [nM],EC50 [8] [nM],other results
Cc1cc(C)cc(S(=O)(=O)c2c(C(=O)NCc3ccccn3)[nH]c3ccc(Cl)cc23)c1,2,> 5510,> 11000,–,–,–,–,–,–,–
Cc1cc(C)cc(S(=O)(=O)c2c(C(=O)NCc3cccnc3)[nH]c3ccc(Cl)cc23)c1,2.2,> 5010,> 11000,8,20,8.8,32,44,37.8,–
Cc1cc(C)cc(S(=O)(=O)c2c(C(=O)NCc3ccncc3)[nH]c3ccc(Cl)cc23)c1,2,> 5510,> 11000,11,21,2.2,45,22,8.8,EC50 [9]: 0.6 nM; Ratio EC50 [10]: 8; EC50 [11]: 0.3 nM; EC50 [12]: 0.4 nM; EC50 [13]: 0.4 nM; EC50 [14]: 0.1 nM; EC50 [15]: 1.7 nM; EC50 [16]: 0.6 nM; EC50 [17]: > 200 nM; EC50 [18]: 0.6 nM; EC50 [19]: 1 nM; EC50 [20]: 0.4 nM
Cc1cc(C)cc(S(=O)(=O)c2c(C(=O)NCc3ccnc4ccccc34)[nH]c3ccc(Cl)cc23)c1,12,> 827,> 9920,–,–,–,–,–,–,–
Cc1cc(C)cc(S(=O)(=O)c2c(C(=O)NCCc3ccccn3)[nH]c3ccc(Cl)cc23)c1,2,> 5340,> 10700,–,–,–,–,–,–,–
Cc1cc(C)cc(S(=O)(=O)c2c(C(=O)NCCc3cccnc3)[nH]c3ccc(Cl)cc23)c1,2.1,> 5090,> 10700,24,40,6.3,162,504,27.3,–
Cc1cc(C)cc(S(=O)(=O)c2c(C(=O)NCCc3ccncc3)[nH]c3ccc(Cl)cc23)c1,2,> 5340,> 10700,–,–,–,–,–,–,–
Cc1cc(C)cc(S(=O)(=O)c2c(C(=O)Nc3ccccc3C#N)[nH]c3ccc(Cl)cc23)c1,2,> 5390,> 10800,–,–,–,–,–,–,–
Cc1cc(C)cc(S(=O)(=O)c2c(C(=O)Nc3cccc(C#N)c3)[nH]c3ccc(Cl)cc23)c1,2.2,> 4900,> 10800,287,506,44,> 40,1390,19.8,–
Cc1cc(C)cc(S(=O)(=O)c2c(C(=O)Nc3ccc(C#N)cc3)[nH]c3ccc(Cl)cc23)c1,11,> 980,> 10800,–,–,–,–,–,–,–
Cc1cc(C)cc(S(=O)(=O)c2c(C(=O)NCc3ccc(C#N)cc3)[nH]c3ccc(Cl)cc23)c1,1.5,> 6970,> 10500,> 4,> 10,32.1,> 10,> 10700,118,–
Cc1cc(C)cc(S(=O)(=O)c2c(C(=O)NC(C)C(N)=O)[nH]c3ccc(Cl)cc23)c1 (racemic),2,3020,6040,–,–,–,–,–,–,–
Cc1nnc(C(C)C)n1[C@H]1C[C@H]2CC[C@@H](C1)N2CC[C@H](NC(=O)C1CCC(F)(F)CC1)c1ccccc1 (relative stereo) [MARAVIROC],–,–,–,–,–,–,–,–,–,EC50 [9]: 1 nM; EC50 [11]: 1 nM; EC50 [12]: 1 nM; EC50 [14]: 1 nM; EC50 [15]: 1 nM; EC50 [16]: 1 nM; EC50 [18]: 1 nM; EC50 [20]: 1 nM
O=C1Nc2ccc(Cl)cc2[C@@](C#CC2CC2)(C(F)(F)F)O1 [EFAVIRENZ],6.3,–,> 15800,–,–,158,–,–,69.3,EC50 [19]: 980 nM
Cc1ccnc2c1NC(=O)c1cccnc1N2C1CC1 [NEVIRAPINE],1500,–,> 18800,–,–,> 3760,–,> 3760,> 3760,EC50 [19]: > 18900 nM
Cc1cn([C@H]2C[C@H](N=[N+]=[N-])[C@@H](CO)O2)c(=O)[nH]c1=O [ZIDOVUDINE],7.8,> 2400,> 18700,–,–,1.6,–,11.7,15.6,EC50 [19]: 3.8 nM
